Literature values, collected in US20220175800A1, “DISPERSIBLE TABLET COMPOSITION” (PTC THERAPEUTICS INC., priority 2019, published 2022).

Solubility in water: poorly soluble in water
Structure (SMILES): CC(=O)OCC(=O)[C@@]12N=C(C)O[C@@H]1C[C@H]1[C@@H]3CCC4=CC(=O)C=C[C@]4(C)[C@H]3[C@@H](O)C[C@@]12C [Deflazacort, (11β,16β)-21-(acetyloxy)11-hydroxy-2′-methyl-5′H-pregna-1,4-dieno[17,16-d]oxazole-3,20-dione]
